# In patent publication US9169270B2, “1-phenyl-substituted heterocyclyl derivatives and their use as prostaglandin D2 receptor modulators” (Actelion Pharmaceuticals Ltd., priority 2012, dated 2015):
# Target: hCRTH2 receptor (Homo sapiens (Human), UniProt Q9Y5Y4)
# Assay: hCRTH2 receptor membranes radioligand (3H-PGD2) displacement assay
# Conditions: hCRTH2 membrane fragments, Binding-Buffer with 0.1% BSA
# Description: Biological Assays: Preparation of hCRTH2 Receptor Membranes and Radioligand Displacement Assay:
# First, recombinant HEK293-hCRTH2 cells were detached from culture plates into 5 ml buffer A/plate (Buffer A: 5 mM Tris, 1 mM MgCl2-6H2O pH=7.4) using a rubber policeman. Cells were then transferred into centrifugation tubes and centrifuged for 5 min at 400 g. The cell pellet was resuspended in the same buffer and tubes were frozen at −80° C. Cells were thawed and membrane fragments were generated by homogenization using a polytron homogenizer (30 seconds). The membrane fragments were then centrifuged at 3000 g for 20 minutes and resuspended in buffer C (Buffer C: 75 mM Tris, 25 mM MgCl2, 250 mM Saccharose pH 7.4). Aliquots of membrane fragments were stored at −20° C.
# Binding assay was performed in a final assay volume of 250 μl. First, 25 μl of test compound, previously diluted in Binding-Buffer (Binding-Buffer: 50 mM Tris-Base, 100 mM NaCl, 1 mM EDTA, 0.1% BSA (protease free), 0.01% NaN3, 10 mM MnCl2, pH 7.0) was placed into each well. […] Binding assay was started by addition of 100 μl CRTH2 membrane fragments, reaching a final concentration of 20 μg/well. For non-specific binding, PGD2 was added to the reaction mixture to […] final concentration. This assay mix was incubated for 90 minutes at room temperature and then filtered through a GF/C filter 96-well plate which was pre-soaked for 3 hours in 0.5% polyethyleneimine (PEI). The filter-wells were washed three times with ice cold Binding-Buffer. Then, 40 μl of Microscint-40 (Packard) was added to each well and the retained radioactivity quantified in a Topcount (Packard).
# hCRTH2 receptor, sequence (Q9Y5Y4 whole entry): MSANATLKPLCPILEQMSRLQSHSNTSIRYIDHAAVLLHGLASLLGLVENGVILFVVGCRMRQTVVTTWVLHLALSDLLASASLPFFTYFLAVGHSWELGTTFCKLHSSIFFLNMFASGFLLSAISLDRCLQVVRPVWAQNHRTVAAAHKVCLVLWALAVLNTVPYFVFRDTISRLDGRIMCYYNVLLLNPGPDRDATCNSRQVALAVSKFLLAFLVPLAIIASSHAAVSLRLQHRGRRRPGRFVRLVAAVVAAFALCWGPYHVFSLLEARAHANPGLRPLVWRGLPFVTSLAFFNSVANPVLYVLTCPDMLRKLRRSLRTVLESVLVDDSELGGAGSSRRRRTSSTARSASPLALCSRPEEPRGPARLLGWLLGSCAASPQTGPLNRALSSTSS
row,Compound,IC50 [nM]
1,"O=C(O)COc1ccc(Cl)cc1C1c2scnc2CCN1C(=O)/C=C/c1ccccc1 (racemic) [Example 45, (±)-(4-Chloro-2-{5-[(E)-(3-phenyl-acryloyl)]-4,5,6,7-tetrahydro-thiazolo[5,4-c]pyridin-4-yl}-phenoxy)-acetic acid]",59.6
2,"CC1(C)CC1C(=O)N1CCc2ncsc2C1c1cc(Cl)ccc1OCC(=O)O (racemic) [Example 47, (±)-{4-Chloro-2-[(±)-5-(2,2-dimethyl-cyclopropanecarbonyl)-4,5,6,7-tetrahydro-thiazolo[5,4-c]pyridin-4-yl]-phenoxy}-acetic acid]",37.1
3,"O=C(O)COc1ccc(Cl)cc1C1c2scnc2CCN1C(=O)CC1CCCCC1 (racemic) [Example 48, (±)-{4-Chloro-2-[5-(2-cyclohexyl-acetyl)-4,5,6,7-tetrahydro-thiazolo[5,4-c]pyridin-4-yl]-phenoxy}-acetic acid]",73
4,"O=C(O)COc1ccc(Cl)cc1C1c2scnc2CCN1C(=O)Cc1ccc2ccccc2c1 (racemic) [Example 49, (±)-{4-Chloro-2-[5-(2-naphthalen-2-yl-acetyl)-4,5,6,7-tetrahydro-thiazolo[5,4-c]pyridin-4-yl]-phenoxy}-acetic acid]",15.8
5,"O=C(O)COc1ccc(Cl)cc1C1c2scnc2CCN1C(=O)CCN1CCc2ccccc21 (racemic) [Example 52, (±)-{4-Chloro-2-[5-(3-2,3-dihydro-indol-1-yl-propionyl)-4,5,6,7-tetrahydro-thiazolo[5,4-c]pyridin-4-yl]-phenoxy}-acetic acid]",17.7
6,"COc1ccc(/C=C/C(=O)N2CCc3ncsc3C2c2cc(Cl)ccc2OCC(=O)O)cc1 (racemic) [Example 54, (±)-(4-Chloro-2-{5-[(E)-3-(4-methoxy-phenyl)-acryloyl]-4,5,6,7-tetrahydro-thiazolo[5,4-c]pyridin-4-yl}-phenoxy)-acetic acid]",41.2
7,"Cc1ccc(/C=C/C(=O)N2CCc3ncsc3C2c2cc(Cl)ccc2OCC(=O)O)cc1 (racemic) [Example 56, (±)-{4-Chloro-2-[5-((E)-3-p-tolyl-acryloyl)-4,5,6,7-tetrahydro-thiazolo[5,4-c]pyridin-4-yl]-phenoxy}-acetic acid]",71.9

# These reach a lower IC50. Values come first.
row,IC50 [nM],Compound
1,6.2,"O=C(O)COc1ccc(Cl)cc1C1c2scnc2CCN1C(=O)CC1Cc2ccccc2C1 (racemic) [Example 46, (±)-{4-Chloro-2-[5-(2-indan-2-yl-acetyl)-4,5,6,7-tetrahydro-thiazolo[5,4-c]pyridin-4-yl]-phenoxy}-acetic acid]"
2,12.6,"O=C(O)COc1ccc(Cl)cc1C1c2scnc2CCN1C(=O)Cc1cccc2ccccc12 (racemic) [Example 50, (±)-{4-Chloro-2-[5-(2-naphthalen-1-yl-acetyl)-4,5,6,7-tetrahydro-thiazolo[5,4-c]pyridin-4-yl]-phenoxy}-acetic acid]"
3,9.7,"O=C(O)COc1ccc(Cl)cc1C1c2scnc2CCN1C(=O)CCCc1ccc(F)cc1 (racemic) [Example 51, (±)-(4-Chloro-2-{5-[4-(4-fluoro-phenyl)-butyryl]-4,5,6,7-tetrahydro-thiazolo[5,4-c]pyridin-4-yl}-phenoxy)-acetic acid]"
4,3.5,"O=C(O)COc1ccc(Cl)cc1C1c2scnc2CCN1C(=O)/C=C/c1ccc(F)cc1F (racemic) [Example 57, (±)-(4-Chloro-2-{5-[(E)-3-(2,4-difluoro-phenyl)-acryloyl]-4,5,6,7-tetrahydro-thiazolo[5,4-c]pyridin-4-yl}-phenoxy)-acetic acid]"
5,2.8,"CCC(C)COC(=O)N1CCc2ncsc2[C@H]1c1cc(Cl)ccc1OCC(=O)O (mixture of isomers) [Example 70, (R)-4-(2-Carboxymethoxy-5-chloro-phenyl)-6,7-dihydro-4H-thiazolo[5,4-c]pyridine-5-carboxylic acid (±)-2-methyl-butyl ester]"
